{"source": "patent US20150259371A1", "about": "“METHODS AND COMPOUNDS FOR INHIBITING GLYCOSYLTRANSFERASES” (SIMON FRASER UNIVERSITY, priority 2010, published 2015)", "key": {"OGT [1]": {"molecular_target": "T1, OGT (Homo sapiens, UniProt O15294)", "T1 construct": "made in house", "T1 sequence (O15294 whole entry)": "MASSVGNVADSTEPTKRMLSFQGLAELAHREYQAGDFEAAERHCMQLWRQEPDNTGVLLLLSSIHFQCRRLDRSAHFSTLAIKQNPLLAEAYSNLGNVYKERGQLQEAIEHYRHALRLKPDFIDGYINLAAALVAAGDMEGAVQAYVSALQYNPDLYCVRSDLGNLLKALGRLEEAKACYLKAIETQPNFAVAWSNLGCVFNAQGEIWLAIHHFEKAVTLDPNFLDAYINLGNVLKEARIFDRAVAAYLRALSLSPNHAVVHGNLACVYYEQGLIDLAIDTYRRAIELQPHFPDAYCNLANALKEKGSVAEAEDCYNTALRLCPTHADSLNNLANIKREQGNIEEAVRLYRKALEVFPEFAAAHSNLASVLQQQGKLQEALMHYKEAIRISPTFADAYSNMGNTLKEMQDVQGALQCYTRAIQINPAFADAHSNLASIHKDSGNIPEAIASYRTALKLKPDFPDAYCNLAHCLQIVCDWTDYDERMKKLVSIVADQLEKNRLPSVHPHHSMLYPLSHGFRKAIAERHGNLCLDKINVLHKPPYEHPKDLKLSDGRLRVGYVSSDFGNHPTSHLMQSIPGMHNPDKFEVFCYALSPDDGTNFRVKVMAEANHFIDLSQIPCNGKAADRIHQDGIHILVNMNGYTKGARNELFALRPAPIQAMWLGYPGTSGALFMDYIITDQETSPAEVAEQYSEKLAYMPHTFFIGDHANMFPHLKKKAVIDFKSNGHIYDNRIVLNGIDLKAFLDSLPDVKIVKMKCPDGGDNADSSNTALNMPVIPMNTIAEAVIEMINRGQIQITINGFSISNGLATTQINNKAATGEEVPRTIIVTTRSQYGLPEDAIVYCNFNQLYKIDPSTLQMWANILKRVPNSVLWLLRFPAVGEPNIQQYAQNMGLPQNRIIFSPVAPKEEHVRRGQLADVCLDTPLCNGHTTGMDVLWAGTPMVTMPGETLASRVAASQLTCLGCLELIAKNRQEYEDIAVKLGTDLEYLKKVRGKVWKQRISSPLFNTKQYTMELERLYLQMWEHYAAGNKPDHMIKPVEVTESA", "details": "literature refs 40, 53; read-out: Km of natural substrate for OGT; cited from earlier work"}, "[2]": {"test_system": "anti-O-GlcNAc antibody CTD110.6", "assay": "Blocking of anti-O-GlcNAc antibody binding to modified nup62", "details": "0-3 mM", "protocol": "Blocking antibody interactions: Recombinantly modified nup62 was run on a gel and transferred onto nitrocellulose membrane. CTD110.6 at the appropriate dilution was incubated with 0-3 mM Me-GlcNAc or Me-5SGlcNAc for 1 h prior to applying to the membrane overnight at 4° C. The standard procedure for western blots was subsequently followed."}, "OGT [3]": {"molecular_target": "T1, OGT", "assay": "OGT transfer: UDP-sugar as donor, nup62 acceptor, UDP production by CE", "assay_type": "biochemical", "protocol": "Capillary electrophoresis (CE): CE was performed on a ProteomeLab PA800 (Beckman-Coulter) using fused silica capillaries of […]×44 cm (to detector). The running buffer was 40 mM Na2B4O7 (Sigma), pH 9.5, containing 1.0% (wv) polyethylene glycol (MW 20,000; Fluka) and filtered prior to use. The capillary was conditioned by washing with 1 N NaOH (2 min, 20 psi), 18 MΩ H2O (3 min, 20 psi) and running buffer (5 min, 40 psi). After injecting a short (15 nL) H2O plug, samples were electrostatically introduced and pre-concentrated at the anode by applying a potential of -0.5 kV for 10 s according to the field-amplified sample injection technique described by Chien and Burgi^39. […] Electropherograms were derived by measuring the absorbance at 254 (+/−10) nm at a rate of 4 Hz. […]\nOGT transfer: The ability of OGT (which was over-expressed and purified as described in Ref. ^40) to transfer UDP-5SGlcNAc was tested using recombinant nup62 as the acceptor. […] Production of UDP was monitored at 254 nm; the concentration was determined from a standard curve of UDP standards, which were prepared in triplicate using the same procedure as the reactions, at a concentration of between […] Controls in the absence of nup62 were subtracted to account for OGT-catalyzed hydrolysis of the UDP-sugars."}, "[4]": {"test_system": "core (α1,6)-fucosylation in CHO K1 cells", "assay": "Aleura aurantia lectin blot of CHO K1 cells", "assay_type": "cell-based", "details": "CHO K1, 48 h"}, "[5]": {"test_system": "sialyl-Lewis X (sLeX) expression in HepG2 cells", "assay": "Immunoblot and lectin blot of HepG2 lysates", "assay_type": "cell-based, human", "protocol": "More specifically, monolayers of Hep G2 cells were grown to about 75% confluency in DMEM containing 10% FBS before they were switched to serum free media for 10 h. FBS-free conditions were utilized to limit the amount of fucose which could be made available to cells upon degradation of serum glycoproteins. Cells were subsequently exposed to peracetylated 5-thio-L-fucose (5-T-Fuc) in serum free media for 48 h after which the media were collected, gently centrifuged (800 rpm, 10 min, 4° C.) to remove dead cells, and concentrated (˜10-fold) by centrifugal filration (Amicon, NMWCO 3000 daltons). Cells were washed with cold PBS prior to harvesting them in PBS+0.5% SDS. Proteins were solubilised upon sonication (2 blasts, 10 sec, 15% power) and protein concentrations were determined for all samples by the DC protein concentration assay (BioRad). Samples were normalized prior to analysis. Identical amounts of proteins were analyzed for all lectin-blotting experiments. Cell extracts and conditioned media containing secreted proteins were all analyzed on 8% polyacrylamide gels (FIG. 10).\nMonolayers of HepG2 cells were exposed to 50 μM 5-T-Fuc for varying lengths of time before they were harvested as described above. When necessary, fresh media and inhibitors were added after 24 h. Alternatively, cells were exposed to 5-T-Fuc for 24 h after which the media was replaced and cells were harvested at the indicated time-points (FIG. 11)."}}, "note": "Entries after “also recorded” stand apart in the source; their conditions may differ. Where a name gives a salt, the structure may show the parent alone."}
{"compound": "uridine diphospho-N-acetylglucosamine [UDP-GlcNAc]", "values": [{"measurement": "Km", "setting": "OGT [1]", "value": "2 to 7", "unit": "µM"}]}
{"compound": "CO[C@H]1S[C@H](CO)[C@@H](O)[C@H](O)[C@H]1NC(C)=O", "note": "[Compound 16, Methyl 2-acetamido-2-deoxy-5-thio-a-D-glucopyranoside]", "values": [{"measurement": "blocking of CTD110.6 binding", "setting": "[2]", "value": "blocks binding almost as well as Me-GlcNAc"}]}
{"compound": "CC(=O)N[C@@H]1[C@@H](O)[C@H](O)[C@@H](CO)S[C@@H]1OP(=O)(O)OP(=O)(O)OC[C@H]1O[C@@H](n2ccc(=O)[nH]c2=O)[C@H](O)[C@@H]1O", "note": "[UDP-5SGlcNAc, 5′-(2-acetamido-2-deoxy-5-thio-a-D-glucopyranosyl)diphosphate triethylammonium salt]", "values": [{"measurement": "fold worse donor substrate for OGT as compared to UDP-GlcNAc", "setting": "OGT [3]", "value": "approximately 14 fold"}]}
{"compound": "C[C@H](S)[C@@H](O)[C@@H](O)[C@H](O)C=O", "note": "[Compound 5-T-Fuc, 5-thiofucose]", "values": [{"measurement": "core-fucosylated antigens by Aleura aurantia lectin", "setting": "[4]", "value": "no further decrease in lectin reactivity was observed above inhibitor concentrations of 5 μM; also recorded: reduction in core (α1,6)-fucosylation"}, {"measurement": "sLeX expression, time course", "setting": "[5]; HepG2, 50 μM", "value": "reduces sLeX expression in a time-dependant fashion"}, {"measurement": "Aleura aurantia lectin reactivity", "setting": "[5]; HepG2, 48 h", "value": "no decrease in Aleura aurantia lectin reactivity was observed"}, {"measurement": "Maackia amurensis lectin binding", "setting": "[5]; HepG2, 48 h", "value": "dose-dependent increase in Maackia amurensis lectin binding"}, {"measurement": "time to full recovery of sLeX expression after exposure", "setting": "[5]; HepG2, after a 24 h exposure", "value": "≤ 24", "unit": "h"}, {"measurement": "sLeX expression, dose response", "setting": "[5]; HepG2, serum free media, 48 h, anti-CD15s", "value": "significant, dose-dependent decrease in sLe^X expression; also recorded: reduces sialyl-lewis X expression in HepG2 liver cells"}]}
